From ChEMBL document CHEMBL1201862, “PubChem BioAssay data set” (2004)
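Following 48 hours of exposure in 96-well plates, responses at five concentrations were used to interpolate endpoints linearly. GI50 is the concentration that inhibits growth by half.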 Calls of active or inactive are those of the source. Cut-off read from the data, not from the text of the source: active = GI50 up to about 1.1 µM and inactive = higher.

Assays:
Assay in all cases: NCI tumour cell line growth inhibition, 48 h
HOP-62 = test system: HOP-62
OVCAR-3 = test system: OVCAR-3
UO-31 = test system: UO-31
SN12C = test system: SN12C
SF-268 = test system: SF-268
SK-MEL-28 = test system: SK-MEL-28
LOX IMVI = test system: LOX IMVI
HOP-92 = test system: HOP-92
K562 = test system: K562
OVCAR-4 = test system: OVCAR-4
CCRF-CEM = test system: CCRF-CEM
CAKI-1 = test system: CAKI-1
COLO 205 = test system: COLO 205
IGROV-1 = test system: IGROV-1
SF-539 = test system: SF-539
Malme-3M = test system: Malme-3M
EKVX = test system: EKVX
MOLT-4 = test system: MOLT-4
RXF 393 = test system: RXF 393

Row | Compound | GI50 (HOP-62) | GI50 (OVCAR-3) | GI50 (UO-31) | GI50 (SN12C) | GI50 (SF-268) | GI50 (SK-MEL-28) | GI50 (LOX IMVI) | GI50 (HOP-92) | GI50 (K562) | GI50 (OVCAR-4) | GI50 (CCRF-CEM) | GI50 (CAKI-1) | GI50 (COLO 205) | GI50 (IGROV-1) | GI50 (SF-539) | GI50 (Malme-3M) | GI50 (EKVX) | GI50 (MOLT-4) | GI50 (RXF 393)
1 | CCOCN1COCN(C)C1=O | > 100 µM (inactive) | > 100 µM (inactive) | > 100 µM (inactive) | > 100 µM (inactive) | > 100 µM (inactive) | > 100 µM (inactive) | > 100 µM (inactive) | > 100 µM (inactive) | > 100 µM (inactive) | > 100 µM (inactive) | > 100 µM (inactive) | > 100 µM (inactive) | > 100 µM (inactive) | > 100 µM (inactive) | > 100 µM (inactive) | > 100 µM (inactive) | > 100 µM (inactive) | – | –
2 | CCN(CC)/[N+]([O-])=N/OCC(C)O (stereo unspecified) | > 100 µM (inactive) | > 100 µM (inactive) | > 100 µM (inactive) | > 100 µM (inactive) | > 100 µM (inactive) | > 100 µM (inactive) | > 100 µM (inactive) | > 100 µM (inactive) | > 100 µM (inactive) | – | > 100 µM (inactive) | > 100 µM (inactive) | – | > 100 µM (inactive) | > 100 µM (inactive) | – | > 100 µM (inactive) | > 100 µM (inactive) | > 100 µM (inactive)
3 | CC1CCC[P+](Cc2ccccc2)(c2ccccc2)CC1 (stereo unspecified) | > 100 µM (inactive) | – | > 100 µM (inactive) | > 100 µM (inactive) | 89.1 µM (inactive) | 41.2 µM (inactive) | 32 µM (inactive) | – | 31.3 µM (inactive) | 15.8 µM (inactive) | 42.3 µM (inactive) | – | 40.4 µM (inactive) | 39 µM (inactive) | 69.5 µM (inactive) | 4.99 µM (inactive) | > 100 µM (inactive) | 78.5 µM (inactive) | 23.1 µM (inactive)
4 | CCC1C2C=CC(CC2)N1S(=O)(=O)c1ccc(C)cc1 (stereo unspecified) | 27.6 µM (inactive) | 33.7 µM (inactive) | 12.9 µM (inactive) | 16.4 µM (inactive) | 20.8 µM (inactive) | – | 15.8 µM (inactive) | – | 18.1 µM (inactive) | 31.8 µM (inactive) | 22.4 µM (inactive) | 20.8 µM (inactive) | 21.7 µM (inactive) | – | 20.7 µM (inactive) | 21.4 µM (inactive) | 27.8 µM (inactive) | 32.6 µM (inactive) | –
5 | O=C(N/C(=C\c1cc(Cl)ccc1Cl)c1nc2ccccc2[nH]1)c1ccccc1 | – | 36.3 µM (inactive) | 20.2 µM (inactive) | 32.1 µM (inactive) | 36.1 µM (inactive) | 45.3 µM (inactive) | – | 8.41 µM (inactive) | 24.4 µM (inactive) | 30.1 µM (inactive) | 25.9 µM (inactive) | 30.8 µM (inactive) | – | > 10 µM (inactive) | 39.3 µM (inactive) | 19.7 µM (inactive) | 28.5 µM (inactive) | 14.9 µM (inactive) | 21.3 µM (inactive)
6 | O=C(O/C(=C(/N=N/c1ccccc1)c1ccccc1)c1ccccc1)c1ccccc1 | – | – | > 100 µM (inactive) | > 100 µM (inactive) | – | > 100 µM (inactive) | – | 82 µM (inactive) | 48.1 µM (inactive) | > 100 µM (inactive) | – | > 100 µM (inactive) | – | > 100 µM (inactive) | > 100 µM (inactive) | > 100 µM (inactive) | > 100 µM (inactive) | > 100 µM (inactive) | > 100 µM (inactive)
7 | COc1cc(OC)c(OC)cc1/C=N/NC(=O)N/N=C/c1cc(OC)c(OC)cc1OC | – | > 100 µM (inactive) | > 100 µM (inactive) | > 100 µM (inactive) | > 100 µM (inactive) | > 100 µM (inactive) | > 100 µM (inactive) | 49.9 µM (inactive) | > 100 µM (inactive) | > 100 µM (inactive) | > 100 µM (inactive) | – | > 100 µM (inactive) | > 100 µM (inactive) | 33.6 µM (inactive) | > 100 µM (inactive) | > 100 µM (inactive) | > 100 µM (inactive) | –
8 | CCN(CC)c1ccc2c(c1)Oc1ccc(N(CC)CC)cc1C21Oc2ccccc2-c2c1c1ccccc1n2CC (stereo unspecified) | – | 1.25 µM (inactive) | 1.43 µM (inactive) | 3.68 µM (inactive) | 2.38 µM (inactive) | 2 µM (inactive) | 3.24 µM (inactive) | 0.302 µM (active) | 0.679 µM (active) | 3.58 µM (inactive) | 1.44 µM (inactive) | 5.15 µM (inactive) | 2.45 µM (inactive) | – | – | 1.73 µM (inactive) | 6.47 µM (inactive) | 2.88 µM (inactive) | 1.81 µM (inactive)
9 | COc1ccc(C#CCC(OC2OC(CO)C(O)C(O)C2O)C(O)c2ccc(OC)c(OC)c2)cc1OC (stereo unspecified) | > 100 µM (inactive) | > 100 µM (inactive) | > 100 µM (inactive) | > 100 µM (inactive) | > 100 µM (inactive) | > 100 µM (inactive) | 22.8 µM (inactive) | – | 57.4 µM (inactive) | > 100 µM (inactive) | 36.6 µM (inactive) | > 100 µM (inactive) | > 100 µM (inactive) | > 100 µM (inactive) | > 100 µM (inactive) | > 100 µM (inactive) | 81.3 µM (inactive) | > 100 µM (inactive) | > 100 µM (inactive)
10 | ClC[Si]12OCCN(CCO1)CCO2 | – | > 100 µM (inactive) | > 100 µM (inactive) | > 100 µM (inactive) | > 100 µM (inactive) | > 100 µM (inactive) | – | > 100 µM (inactive) | > 100 µM (inactive) | – | > 100 µM (inactive) | > 100 µM (inactive) | > 100 µM (inactive) | > 100 µM (inactive) | > 100 µM (inactive) | > 100 µM (inactive) | – | > 100 µM (inactive) | > 100 µM (inactive)
11 | NNC(=O)N/N=C1\C(=O)N(c2nccs2)C(=O)C(=O)C1c1nc2ccccc2s1 (stereo unspecified) | > 100 µM (inactive) | > 100 µM (inactive) | > 100 µM (inactive) | > 100 µM (inactive) | > 100 µM (inactive) | > 100 µM (inactive) | > 100 µM (inactive) | > 100 µM (inactive) | – | > 100 µM (inactive) | – | > 100 µM (inactive) | > 100 µM (inactive) | > 100 µM (inactive) | > 100 µM (inactive) | > 100 µM (inactive) | > 100 µM (inactive) | – | > 100 µM (inactive)
12 | Cc1ccc(C)c(NC2=NC(=O)C(CC(=O)Nc3ccc(Cl)cc3Cl)S2)c1 (stereo unspecified) | > 100 µM (inactive) | 49.9 µM (inactive) | > 100 µM (inactive) | > 100 µM (inactive) | 37.8 µM (inactive) | 77.6 µM (inactive) | > 100 µM (inactive) | – | 80.2 µM (inactive) | 49.2 µM (inactive) | 41.4 µM (inactive) | > 100 µM (inactive) | 88.7 µM (inactive) | > 100 µM (inactive) | 41.4 µM (inactive) | 70.5 µM (inactive) | > 100 µM (inactive) | 54.8 µM (inactive) | 31.2 µM (inactive)
13 | Cc1c(Cl)cccc1NC(=O)C(=O)C(C(=O)c1ccccc1-c1ccccc1)C1OC(=O)c2ccccc21 (stereo unspecified) | 16.3 µM (inactive) | 16 µM (inactive) | 20.4 µM (inactive) | – | 19.7 µM (inactive) | 19 µM (inactive) | 18.3 µM (inactive) | 15.2 µM (inactive) | 27.9 µM (inactive) | – | 19.8 µM (inactive) | – | 20.2 µM (inactive) | 32.1 µM (inactive) | 14.7 µM (inactive) | 12.7 µM (inactive) | 26.8 µM (inactive) | 14.3 µM (inactive) | 12.6 µM (inactive)
14 | Cc1cc(N(CCC#N)CCC#N)ccc1/C=C1N=C(/C=C\c2ccccc2)N(c2ccc(C(=O)O)cc2)C\1=O | > 100 µM (inactive) | > 100 µM (inactive) | > 100 µM (inactive) | > 100 µM (inactive) | > 100 µM (inactive) | > 100 µM (inactive) | > 100 µM (inactive) | > 100 µM (inactive) | > 100 µM (inactive) | > 100 µM (inactive) | > 100 µM (inactive) | > 100 µM (inactive) | > 100 µM (inactive) | > 100 µM (inactive) | > 100 µM (inactive) | > 100 µM (inactive) | – | > 100 µM (inactive) | –
15 | CCOC(=O)c1nc2ccc(Cl)cc2c2c1Cc1ccccc1-2 | > 100 µM (inactive) | > 100 µM (inactive) | > 100 µM (inactive) | > 100 µM (inactive) | > 100 µM (inactive) | > 100 µM (inactive) | > 100 µM (inactive) | – | > 100 µM (inactive) | > 100 µM (inactive) | – | > 100 µM (inactive) | > 100 µM (inactive) | > 100 µM (inactive) | > 100 µM (inactive) | – | > 100 µM (inactive) | > 100 µM (inactive) | 19.7 µM (inactive)
16 | Cn1c(=O)nc2n(-c3cc(Cl)ccc3Cl)c3ccccc3nc-2c1=O | 12 µM (inactive) | 2.95 µM (inactive) | 13.6 µM (inactive) | 4.48 µM (inactive) | 11.9 µM (inactive) | – | – | – | 6.4 µM (inactive) | 4.33 µM (inactive) | 4.02 µM (inactive) | 7.19 µM (inactive) | 1.82 µM (inactive) | 13 µM (inactive) | 5.92 µM (inactive) | 3.78 µM (inactive) | 3.88 µM (inactive) | 8.02 µM (inactive) | 14.8 µM (inactive)
17 | C[C@@]12CCCc3coc(c31)C(=O)c1cc3c(cc12)C(=O)C=CC3=O [XESTOQUINONE] | – | 20.2 µM (inactive) | 16.2 µM (inactive) | 20.3 µM (inactive) | – | – | 15.8 µM (inactive) | 4.52 µM (inactive) | 3.61 µM (inactive) | 15.5 µM (inactive) | 2.23 µM (inactive) | 14.9 µM (inactive) | – | 18.5 µM (inactive) | 15.7 µM (inactive) | – | 18.8 µM (inactive) | 1.96 µM (inactive) | 14.9 µM (inactive)
